Measurements as given in patent EP1108430A1, “CALCIUM CHANNEL ANTAGONISTS” (Nippon Shinyaku Co., Ltd., priority 1998, dated 2000).

How the values were obtained:
[1] = test system: dopamine release from the rat striatum; assay: In vivo dopamine release from the striatum (microdialysis); settings: for effect on dopamine release: rat, in vivo
Experimental: The release of dopamine from the rat striatum was measured by the in vivo microdialysis method. A microdialysis probe fitted with a microinjection cannula was inserted into the striatum of an 8∼10·week·old male SD rat and the striatum was perfused with Ringer's solution at a rate of 2 µl/min.
Beginning 2 hours after the start of perfusion, the perfusate was recovered at a 20-minute interval and the dopamine in each perfusate was measured with a high-performance liquid chromatography-electrochemical detector. The drug was perfused into the striatum through the microdialysis probe or microinjected into the striatum via the microinjection cannula. The effect of the drug on the basal dopamine release was evaluated by comparing the values before and after stimulation and a statistical analysis was made by Dunnett's test. Then, to evaluate the effect of Compound 1A on KCl·stimulated dopamine release, the amount of dopamine released in the presence of Compound 1A (10 µM) (ipsilateral striatum) was compared with the amount of KCl-stimulated dopamine release in the absence of Compound 1A (contralateral striatum) and the difference was statistically analyzed by paired t-test.
Therefore, with a microdialysis probe inserted bilaterally, one of the striatum was perfused with Ringer's solution (control side) and the other striatum with Compound 1A (10 µM). K^+ stimulation, 25∼80 mM, was consecutively given at a 20-minute interval.

[2] = test system: L-type Ca^2+ channel; type: cell-based, mouse; settings: 3∼30 µM; Dunnett's test; Fig. 1
[3] = molecular target: P/Q-type Ca^2+ channel (Mus musculus, UniProt P97445); assay: KCl-induced NOS activation in the presence of 1 µM nifedipine (response mediated by the P/Q-type channel); type: cell-based
Chain of P/Q-type Ca^2+ channel (P97445 whole entry): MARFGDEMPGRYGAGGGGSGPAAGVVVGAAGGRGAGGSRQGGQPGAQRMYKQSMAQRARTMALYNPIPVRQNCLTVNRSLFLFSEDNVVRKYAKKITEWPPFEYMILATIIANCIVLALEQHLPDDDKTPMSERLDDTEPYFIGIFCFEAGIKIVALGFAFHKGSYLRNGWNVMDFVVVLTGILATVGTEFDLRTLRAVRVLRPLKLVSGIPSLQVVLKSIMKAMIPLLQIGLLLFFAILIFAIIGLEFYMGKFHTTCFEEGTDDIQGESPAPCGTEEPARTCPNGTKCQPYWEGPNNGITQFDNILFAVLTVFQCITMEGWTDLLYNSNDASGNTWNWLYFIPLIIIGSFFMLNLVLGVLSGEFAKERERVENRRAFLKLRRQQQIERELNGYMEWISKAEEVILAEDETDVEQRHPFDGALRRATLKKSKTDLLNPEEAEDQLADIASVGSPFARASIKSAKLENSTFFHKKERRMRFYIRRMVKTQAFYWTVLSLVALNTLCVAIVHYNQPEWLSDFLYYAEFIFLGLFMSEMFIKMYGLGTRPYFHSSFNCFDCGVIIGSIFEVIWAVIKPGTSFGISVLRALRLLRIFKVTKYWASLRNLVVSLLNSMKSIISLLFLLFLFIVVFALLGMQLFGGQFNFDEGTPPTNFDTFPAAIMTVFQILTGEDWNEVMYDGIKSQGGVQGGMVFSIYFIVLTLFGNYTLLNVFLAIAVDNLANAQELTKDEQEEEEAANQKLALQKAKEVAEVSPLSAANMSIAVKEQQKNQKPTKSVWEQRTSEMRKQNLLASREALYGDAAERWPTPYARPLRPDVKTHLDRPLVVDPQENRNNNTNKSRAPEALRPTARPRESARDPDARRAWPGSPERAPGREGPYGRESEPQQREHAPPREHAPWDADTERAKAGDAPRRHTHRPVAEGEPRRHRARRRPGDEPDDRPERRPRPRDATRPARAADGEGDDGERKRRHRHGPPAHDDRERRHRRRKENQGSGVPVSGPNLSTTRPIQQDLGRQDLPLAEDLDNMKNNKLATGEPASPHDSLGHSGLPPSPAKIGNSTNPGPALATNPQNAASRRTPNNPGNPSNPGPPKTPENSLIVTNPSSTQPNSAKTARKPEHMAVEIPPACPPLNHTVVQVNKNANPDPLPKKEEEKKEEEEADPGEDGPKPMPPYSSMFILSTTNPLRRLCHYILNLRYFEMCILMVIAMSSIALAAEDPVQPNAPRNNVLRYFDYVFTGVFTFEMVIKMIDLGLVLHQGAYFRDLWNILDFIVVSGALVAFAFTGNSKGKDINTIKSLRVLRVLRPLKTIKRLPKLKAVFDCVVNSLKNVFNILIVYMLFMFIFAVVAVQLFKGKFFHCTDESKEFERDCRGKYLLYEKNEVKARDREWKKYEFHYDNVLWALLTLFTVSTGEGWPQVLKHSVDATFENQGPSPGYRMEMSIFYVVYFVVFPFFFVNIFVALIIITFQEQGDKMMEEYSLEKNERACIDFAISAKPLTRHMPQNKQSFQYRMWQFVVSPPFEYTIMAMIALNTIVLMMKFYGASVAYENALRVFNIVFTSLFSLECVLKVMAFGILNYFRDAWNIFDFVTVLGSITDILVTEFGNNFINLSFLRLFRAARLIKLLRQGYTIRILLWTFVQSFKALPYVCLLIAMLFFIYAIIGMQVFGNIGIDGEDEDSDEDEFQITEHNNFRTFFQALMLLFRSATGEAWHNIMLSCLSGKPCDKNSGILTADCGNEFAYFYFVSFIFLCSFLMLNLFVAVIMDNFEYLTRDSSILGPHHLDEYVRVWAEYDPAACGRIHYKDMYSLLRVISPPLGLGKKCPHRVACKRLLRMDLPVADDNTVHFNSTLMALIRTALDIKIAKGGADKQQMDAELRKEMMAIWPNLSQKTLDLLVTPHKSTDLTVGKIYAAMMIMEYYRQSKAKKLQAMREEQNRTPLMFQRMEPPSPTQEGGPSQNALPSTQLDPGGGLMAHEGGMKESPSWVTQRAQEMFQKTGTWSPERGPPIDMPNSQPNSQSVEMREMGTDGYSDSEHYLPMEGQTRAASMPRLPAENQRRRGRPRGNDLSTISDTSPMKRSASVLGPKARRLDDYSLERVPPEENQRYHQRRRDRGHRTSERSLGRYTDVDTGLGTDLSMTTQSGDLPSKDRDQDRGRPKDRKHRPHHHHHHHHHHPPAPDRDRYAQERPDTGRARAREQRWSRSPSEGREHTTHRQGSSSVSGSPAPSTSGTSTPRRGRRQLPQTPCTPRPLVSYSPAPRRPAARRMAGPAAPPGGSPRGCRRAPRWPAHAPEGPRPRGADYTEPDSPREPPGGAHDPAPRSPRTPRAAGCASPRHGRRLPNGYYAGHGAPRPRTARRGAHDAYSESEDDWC

[4] = test system: mouse cerebral cortex-derived primary cultured neurons; assay: Elevation of intracellular calcium ion concentration under high-potassium stimulation (fura-2/AM 2-wavelength fluorescence); type: cell-based; settings: 1 - 30 µM; added 10 minutes before the second stimulation; Fig. 2; Dunnett's test, p<0.01
Experimental: In the dish (the bottom opening fitted with cover glass) used for the measurement of calcium ion concentration, neurons on day 5 of culture were allowed to take up the fluorescent calcium probe fura-2/AM before determination. Thus, cultured neurons were incubated in 10 mM HEPES-NaOH buffer (pH 7.05) containing 10 µM fura-2/AM, 5.4 mM KC1, 130 mM NaCl, 2.5 mM CaCl2 and 5.5 mM D-glucose at 37°C for 30 minutes to let fura-2/AM taken up in the cells. Thereafter, incubation was further continued for 30 minutes, whereby the fura-2/AM taken up in the cells was converted to fura-2 by endogenous esterase activity. […]
The calcium ion concentration was determined by the method of Grynkiewicz et al. (1985). Thus, by fluorescent microscope-image processing, the calcium ion concentration was determined from the fluorescence intensities of fura - 2/Ca^2+ at the exciting wavelengths of 340 nm and 380 nm. Using Argus-50/CA System (Hamamatsu Photonics), a calibration curve constructed beforehand was transformed to find the intracellular calcium ion concentration from the fluorescence intensity ratio.
The high-potassium stimulus was given twice, 15 minutes apart and for 15 seconds each, and the ratio of increase in free calcium ion concentration in response to the stimulations was calculated. […]

[5] = test system: nitric oxide synthase (NOS); assay: cells; type: cell-based, mouse

Cc1nc(OCCCCCN2CCCCC2)cc(-c2ccc(F)cc2)n1 [Compound 1A, 4-(4-fluorophenyl)-2-methyl-6-(5-piperidinopentyloxy)pyrimidine]
inhibition of dopamine release at 80 mM KCl ([1]; 10 µM perfused into the striatum, 80 mM KCl, Fig. 3, p<0.05, paired t-test): inhibited dopamine release significantly | inhibitory effect on dopamine release under K^+ stimulation ([1]; 10 µM perfused into the striatum, K^+ stimulation 25∼80 mM at a 20-minute interval, versus contralateral control side): marked inhibitory effects on dopamine release with an increasing potassium concentration | inhibition of the NOS activation in the presence of 0.1 µM ω-agatoxin IVA (the response mediated by the L-type Ca^2+ channel) [2]: significant (P<0.01) and concentration-dependent inhibitions | inhibition of the response mediated by the P/Q-type Ca^2+ channel (NOS activation in the presence of 1 µM nifedipine) ([3]; 10 µM): completely inhibited | inhibition of the NOS activation in the presence of 1 µM nifedipine (the response mediated by the P/Q-type Ca^2+ channel) ([3]; 3∼30 µM, Dunnett's test, Fig. 1): significant (P<0.01) and concentration-dependent inhibitions | inhibition of the high-potassium-stimulated increase in intracellular calcium ion concentration [4]: inhibit the high-potassium-stimulated increase in intracellular calcium ion concentration in a concentration-dependent manner

COC(=O)C1=C(C)NC(C)=C(C(=O)OC)C1c1ccccc1[N+](=O)[O-] [nifedipine]
inhibition at 1 µM ([5]; Mus musculus, Neuron, read-out: inhibition of NOS activated on high-potassium stimulation of neurons): ~56%

ω-agatoxin IVA [reference compound]
effect on dopamine release [1]: significant decrease (p<0.01) | inhibition of NOS activated on high-potassium stimulation of neurons ([5]; 0.1 µM): about 53%

ω-conotoxin GVIA [reference compound]
effect on dopamine release [1]: significant decrease (p<0.01) | effect on the NOS activation by KCl stimulation ([5]; 5 µM): substantially no effect
